Assay results taken from the NIST ThermoML archive (doi:10.1021/je900091b).

Key:
[1] = Liquid
[2] = xn = mol fraction of the nth substance listed; details: Liquid, x2 = 0

C=C(C)C(=O)OC [methyl methacrylate]
[1]
Details | mass density [kg/m3] | viscosity [mPa·s]
283.15 K | 954.802 | 0.6808
288.15 K | 949.097 | 0.6337
293.15 K | 943.365 | 0.5899
298.15 K | 937.615 | 0.554
303.15 K | 931.837 | 0.5248
308.15 K | 926.032 | 0.4956
313.15 K | 920.185 | 0.4719
318.15 K | 914.317 | 0.4497
323.15 K | 908.405 | 0.4294
328.15 K | 902.468 | 0.41
333.15 K | 896.479 | 0.3938
343.15 K | 884.418 | 0.3636
353.15 K | 872.129 | 0.3398

CCCCn1cc[n+](C)c1.F[P-](F)(F)(F)(F)F [1-butyl-3-methylimidazolium hexafluorophosphate]
[1]
Details | mass density [kg/m3] | viscosity [mPa·s]
283.15 K | 1380.34 | 802.09
288.15 K | 1376.06 | 552.57
293.15 K | 1371.8 | 389.81
298.15 K | 1367.53 | 282.24
303.15 K | 1363.28 | 209.25
308.15 K | 1359.19 | 159.15
313.15 K | 1355.09 | 123.38
318.15 K | 1350.98 | 97.78
323.15 K | 1346.87 | 78.77
328.15 K | 1342.78 | 61.34
333.15 K | 1338.7 | 50.38
343.15 K | 1330.56 | 35.25
353.15 K | 1322.47 | 25.76

CCCCn1cc[n+](C)c1.F[P-](F)(F)(F)(F)F [1-butyl-3-methylimidazolium hexafluorophosphate] + C=C(C)C(=O)OC
[2]
Details | mass density [kg/m3] | viscosity [mPa·s]
283.15 K | 1380.34 | 802.09
288.15 K | 1376.06 | 552.57
293.15 K | 1371.8 | 389.81
298.15 K | 1367.53 | 282.24
303.15 K | 1363.28 | 209.25
308.15 K | 1359.19 | 159.15
313.15 K | 1355.09 | 123.38
318.15 K | 1350.98 | 97.78
323.15 K | 1346.87 | 78.77
328.15 K | 1342.78 | 61.34
333.15 K | 1338.7 | 50.38
343.15 K | 1330.56 | 35.25
353.15 K | 1322.47 | 25.76
